Entries after “also recorded” stand apart in the source; their conditions may differ.
Key:
βARR1–ERK2 interaction = molecular target: T1, βARR1–ERK2 interaction (Rattus norvegicus, UniProt P29066); experiment: Flag pulldown of βARR1 with ERK2; type: biochemical; conditions: 20-fold molar excess of compound, 30 min
T1 construct: βARR1 or βARR2 construct, with their C terminus truncated (at amino acid 393 or 394, respectively); GST (pGEX4T1) (N, cleaved yes); made in house
Protocol: (§1) To assess the effects of the compounds on βARR1 interactions with its effector proteins SRC and JNK3, βARR1–Flag (5 μM) was incubated with a 20-fold molar excess of Cmpd-5, Cmpd-46 or Cmpd-64 for 30 min at room temperature. Subsequently, 15 μM of SRC or JNK3 was added. To evaluate compound effects on βARR1–ERK2 binding, βARR1 (15 μM) was pre-incubated with a 20-fold molar excess of Cmpd-5, Cmpd-46 or Cmpd-64 for 30 min at room temperature, followed by the addition of 5 μM ERK2–Flag. Afterward, 50 μl of anti-Flag M2 affinity gel (Millipore Sigma) was added, and the mixtures were incubated for 1 h at room temperature with rotation. The resin was then collected by centrifugation and washed 3 times with 1 ml of 20 mM HEPES (pH 7.5), 100 mM NaCl. Bound proteins were eluted using 0.2 mg ml^−1 Flag peptide in 20 mM HEPES (pH 7.5), 100 mM NaCl, mixed with Laemmli sample buffer (Bio-Rad), and analysed by SDS–PAGE followed by western blotting. Detection was performed using monoclonal anti-Flag M2-peroxidase (HRP) antibody (1:2,000, Sigma-Aldrich A8592, RRID:AB_439702) for βARR1–Flag and ERK2–Flag; polyclonal A1CT antibody[76] (1:5,000) for βARR1; anti-SRC monoclonal antibody (1:10,000, EMD Millipore 05-184, RRID:AB_2302631) for SRC; and anti-JNK3 monoclonal antibody (1:5,000, Cell Signaling 2305, RRID:AB_2281744) for JNK3. Western blot images were taken using Bio-Rad ChemiDoc system and the densitometry analysis was performed by ImageLab v6.1 and statistical differences were determined by one-way ANOVA with Dunnett’s post hoc test in GraphPad Prism software.

βARR1–JNK3 interaction = molecular target: T2, βARR1–JNK3 interaction (Rattus norvegicus, UniProt P29066); experiment: Flag pulldown of βARR1 with JNK3; type: biochemical; conditions: 20-fold molar excess of compound, 30 min
T2 construct: made in house
Protocol: as §1

[1] = system: β2AR desensitization (cAMP); experiment: FRET (ICUE2) cAMP accumulation, β2AR desensitization; type: cell-based; conditions: 40 μM, 5 min; Iso 10 μM; HEK293 cells stably expressing β2AR
Protocol: To measure cellular cAMP production in live cells mediated by stimulatory G protein, Gαs-coupled β2AR activation, FRET-based Epac sensors were used as described previously. The Epac2 (ICUE2) sensor contains a CFP and YFP FRET pair. HEK293 cells stably expressing ICUE2 were plated in poly-D-lysine-coated, black, clear-bottom 96-well plates (Corning) at a density of 50,000 cells per well. At least 16 h after plating, cells were washed with PBS and incubated in HEPES-buffered saline solution (10 mM HEPES, 150 mM NaCl, 5 mM KCl, 1.5 mM MgCl2, 1.5 mM CaCl2, 10 mM glucose, 0.2% BSA, pH 7.4) for 1 h at 37 °C. Cells were then treated with either β-arrestin small-molecule modulators (40 μM) or DMSO for 5 min, and baseline fluorescence was monitored. Real-time cAMP measurement was initiated by stimulating cells with 10 μM Iso at 37 °C. FRET changes corresponding to cAMP accumulation were measured as changes in the background-subtracted 480 nm/535 nm fluorescence emission ratio (CFP/YFP), reflecting changes in cAMP levels. The entire cAMP accumulation profile was quantified by calculating the AUC for the time course. To assess the effect of modulators on the agonist-induced cAMP response, AUC values were expressed as a percentage of the response to Iso in the presence of DMSO (set as 100%), enabling comparison of the effect of each modulator relative to this agonist-alone control.

[2] = system: AT1R desensitization (Ca2+); experiment: Ca2+ mobilization in HEK293 cells stably expressing AT1R; type: cell-based, human; conditions: 10 μM, 30 min, ANGII 30 pM
Protocol: Intracellular (Ca^2+) release was measured using the FLIPR Calcium 6 assay kit with a FlexStation 3 microplate reader, following the manufacturer’s instructions (Molecular Devices) and as described previously. In brief, HEK293 cells stably expressing human angiotensin II type 1 receptor (AT1R), parental HEK293 cells transiently expressing AT1R, or HEK293 CRISPR–Cas9 βARR1/2-knockout cells transiently expressing AT1R were seeded in poly-D-lysine-coated, black 96-well assay plates at a density of 40,000 cells per well and incubated for 24 h. On the day of the experiment, cell plates were loaded with FLIPR Calcium 6 reagents and treated with β-arrestin small-molecule modulators (10 μM) or vehicle (DMSO) for 30 min. After establishing basal fluorescence (F0), the cells were treated with the agonist ANGII (30 pM for stably expressing AT1R or 120 pM for transiently expressing AT1R) while fluorescence intensity (F) was monitored in real time. These sub-maximal ANGII concentrations were empirically optimized to elicit moderate, temporally resolved Ca^2+ transients, allowing sufficient time for β-arrestin-mediated desensitization to develop prior to the peak response. The complete Ca^2+ transient profile was quantified by calculating the AUC over time. AUC values were normalized to the response to ANGII alone (set as 100%) to compare the effects of modulators relative to the agonist-alone control.

βARR1–SRC interaction = molecular target: T3, βARR1–SRC interaction (Rattus norvegicus, UniProt P29066); experiment: Flag pulldown of βARR1 with SRC; type: biochemical; conditions: 20-fold molar excess of compound, 30 min
T3 construct: made in house
Protocol: as §1

T2 sequence (P29066 whole entry): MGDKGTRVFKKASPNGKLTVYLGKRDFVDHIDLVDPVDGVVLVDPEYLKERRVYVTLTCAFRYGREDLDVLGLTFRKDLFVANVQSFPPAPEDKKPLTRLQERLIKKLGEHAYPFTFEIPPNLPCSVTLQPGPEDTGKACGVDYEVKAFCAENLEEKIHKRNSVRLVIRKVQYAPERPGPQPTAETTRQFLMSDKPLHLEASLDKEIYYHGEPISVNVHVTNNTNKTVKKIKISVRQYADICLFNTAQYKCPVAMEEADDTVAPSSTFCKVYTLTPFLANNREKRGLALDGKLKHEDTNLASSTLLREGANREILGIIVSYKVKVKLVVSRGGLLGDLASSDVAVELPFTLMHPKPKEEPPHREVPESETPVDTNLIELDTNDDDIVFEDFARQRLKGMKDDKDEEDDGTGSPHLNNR
T2 sequence (P53779 whole entry partner): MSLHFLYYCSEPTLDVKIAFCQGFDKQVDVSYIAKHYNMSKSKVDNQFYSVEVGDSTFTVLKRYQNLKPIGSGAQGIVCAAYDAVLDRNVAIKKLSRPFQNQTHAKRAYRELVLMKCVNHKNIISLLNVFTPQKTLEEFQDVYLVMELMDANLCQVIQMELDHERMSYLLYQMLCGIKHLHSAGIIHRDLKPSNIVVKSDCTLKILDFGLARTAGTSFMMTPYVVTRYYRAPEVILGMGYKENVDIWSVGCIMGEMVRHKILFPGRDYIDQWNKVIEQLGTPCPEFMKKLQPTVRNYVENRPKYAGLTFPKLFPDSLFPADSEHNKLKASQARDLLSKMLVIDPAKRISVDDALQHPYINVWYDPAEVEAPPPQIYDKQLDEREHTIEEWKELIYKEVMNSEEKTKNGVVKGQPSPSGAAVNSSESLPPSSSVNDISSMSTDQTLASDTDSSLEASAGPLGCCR
T3 sequence (P29066 whole entry): as the sequence (P29066 whole entry) above
T1 sequence (P29066 1-393): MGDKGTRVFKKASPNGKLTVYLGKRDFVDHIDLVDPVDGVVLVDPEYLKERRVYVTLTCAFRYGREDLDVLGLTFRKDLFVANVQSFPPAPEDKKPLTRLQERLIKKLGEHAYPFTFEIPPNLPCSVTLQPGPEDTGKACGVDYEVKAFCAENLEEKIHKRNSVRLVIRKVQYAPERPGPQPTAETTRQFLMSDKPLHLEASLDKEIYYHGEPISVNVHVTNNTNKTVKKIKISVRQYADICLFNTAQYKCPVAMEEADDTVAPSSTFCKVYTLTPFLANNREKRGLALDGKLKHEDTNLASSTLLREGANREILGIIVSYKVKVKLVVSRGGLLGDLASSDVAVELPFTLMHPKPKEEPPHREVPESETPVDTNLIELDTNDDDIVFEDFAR

| Structure (SMILES) | effect on βARR1 binding to ERK2 (βARR1–ERK2 interaction) | effect on βARR1 binding to JNK3 (βARR1–JNK3 interaction) | Iso-induced cAMP accumulation (AUC) relative to DMSO (set to 100%) [1] | ANGII-induced Ca2+ response (AUC) relative to DMSO (set to 100%) [2] | effect on βARR1 binding to SRC (βARR1–SRC interaction) |
| --- | --- | --- | --- | --- | --- |
| C=C1C(=O)[C@]23[C@H](O)[C@H]1CC[C@H]2[C@@]12CO[C@]3(O)[C@@H](O)[C@@H]1C(C)(C)CC[C@@H]2O [Cmpd-5, (1S,4aR,5S,6S,6aR,9S,11aS,11bS,14R)-1,5,6,14-tetrahydroxy−4,4-dimethyl-8-methylenedecahydro-1H-6,11b-(epoxymethano)-6a,9-methanocyclohepta[a]naphthalen-7(8H)-one] | reduced; also recorded: significantly inhibited | minimal change | 191% | 279% | reduced |
| C=C1C(=O)C2=CC1CCC(=O)C1(C)CCC(OCC)C(C)(C)C1CC2O (stereo not drawn) [Cmpd-46, (Z)-3-ethoxy-6-hydroxy-4,4,13a-trimethyl-9-methylene-1,2,3,4,4a,5,6,9,10,11,12,13a-dodecahydro-7,10-(metheno)benzo[11]annulene-8,13-dione] | reduced | minimal change | 207% | 356% | markedly reduced |
| C=C1C(=O)OC2CC3(C)OC3CCC(C)=CC(OC(C)=O)C12 (stereo not drawn) [Cmpd-64, (Z)-4,10a-dimethyl-7-methylene-8-oxo-1a,2,3,6,6a,7,8,9a,10,10a decahydrooxireno[2’,3’:8,9]cyclodeca[1,2-b]furan-6-yl acetate] | reduced | minimal change | 282% | 490% | markedly reduced |

— article PMC13489962, “Small-molecule modulation of β-arrestins” (Nature, 2026)
